# Experimental data: patent US9073905B2, “Rock inhibitors” (Amakem NV, priority 2011, dated 2015)
# “Also recorded” adds a separate entry of the source.
# Columns and labels:
# [1] = target: ROCK2 (Homo sapiens, UniProt O75116); assay: Kinase inhibition (ROCKI & ROCKII), radiometric 33P-ATP biochemical assay; details: for inhibitory activity against ROCK (in words): summary of point C1.1
# Procedure: On-target activity against ROCK was measured in a biochemical assay, using the following reagents: Base Reaction buffer; 20 mM Hepes (pH 7.5), 10 mM MgCl2, 1 mM EGTA, 0.02% Brij35, 0.02 mg/ml BSA, 0.1 mM Na3VO4, 2 mM DTT, 1% DMSO. Required cofactors are added individually to each kinase reaction. The reaction procedure first involved the preparation of a peptide substrate in a freshly prepared reaction buffer. Required cofactors were then added to the substrate solution. ROCK (1 nM final concentration) was then delivered to the substrate solution. After gentle mix, DMSO solutions of the test compounds were added to the enzyme. Substrate mix ^33P-ATP (specific activity 0.01 μCi/μl final) was then delivered into the reaction mixture to initiate the reaction. The kinase reaction was incubated for 120 min. at room temperature. Reactions were then spotted onto P81 ion exchange paper (Whatman #3698-915). Filters were washed extensively in 0.1% Phosphoric acid. A radiometric count was then performed and IC50 values were subsequently determined.
# The IC50 values obtained (in accordance with the protocol set forth above) are represented as follows: “+++” means IC50 below 0.1 μM, “++” means IC50 between 0.1 μM and 1 μM; “+” means IC50 between 1 and 10 μM and “ND” means “not determined yet”.
# [2] = test system: MLC-T18/S19 phosphorylation; assay: Myosin light chain phosphorylation assay (ELISA) in A7r5 cells; assay type: cell-based, Rat; details: for functional activity in the MLC phosphorylation assay (in words): FIG. 1; for IC50 / EC50: Rattus norvegicus; for IC50: A7R5, comparison table, MLC phosphorylation, read-out: IC50 MLC-PP; for EC50: MLC-T18/S19 phosphorylation, A7r5 cells, serum-free medium
# Procedure: Rat smooth muscle cell line A7r5 is used. The endogenous expression of ROCK esults in a constitutive phosphorylation of the regulatory myosin light chain at T18/S19. A7r5 cells were plated in DMEM supplemented with 10% FCS in multiwall cell culture plates. After serum starvation overnight, cells were incubated with compounds in serum-free medium.
# Quantification of MLC-T18/S19 phosphorylation is assesses in 96 well-plates via ELISA using a phspho-MLC-T18/S19 specific antibody and a secondary detection antibody. Raw data were converted into percent substrate phosphorylation relative to high controls, which were set to 100%.
# EC50 values were determined using GraphPad Prism 5.01 software using a nonlinear regression curve fit with variable hill slope.
# The EC50 values obtained (in accordance with the protocols set forth above) are represented as follows: “+++” means EC50 below 0.3 μM, “++” means EC50 between 0.3 μM and 1 μM; “+” means EC50 between 1 and 10 μM and “−” means EC50>10 μM.
# [3] = Stability assay in human plasma; assay type: in vitro ADME; details: 1 μM compound, LC-MS/MS, read-out: t½ human plasma
# Procedure: (§1) Compounds are incubated at a concentration of 1 μM in rat (mice or rabbit) or human plasma. Samples are taken at fixed time points and the remnant of compound is determined by LC-MS/MS after protein precipitation. Half life is expressed in minutes.
# [4] = Stability towards drug metabolizing enzymes in lung S9; assay type: in vitro ADME, human; details: for half-life at 1 μM: human
# Procedure: A 1 μM solution of the ROCK inhibitors is incubated with a reaction mixture containing lung S9 (from smokers) as well as the cofactors NADPH, UDPGA, PAPS and GSH. Samples are collected at 0, 15, 30 and 60 minutes post incubation. Negative control samples incubated with ROCK inhibitors and S9 fraction in the absence of cofactors are run in parallel. By using LC-MS/MS analysis, the percent of ROCK compounds remaining at each time point, the metabolic half-life of the ROCK compounds (expressed in minutes) and the metabolic half-life of the control compounds are determined.
# [5] = Stability assay in rabbit aqueous humor; assay type: in vitro ADME; details: for half-life at 1 μM: rabbit, aqueous humor, read-out: t½ AH
# Procedure: Compounds are incubated at a concentration of 1 μM in rabbit aqueous humor (AH). Samples are taken at fixed time points and the remnant of compound is determined by LC-MS/MS after protein precipitation. Half life is expressed in minutes.
# [6] = test system: normotensive New Zeland White rabbits; assay: Intraocular pressure (IOP) lowering in normotensive rabbits; assay type: in vivo, rabbit
# Procedure: A detailed example of the IOP lowering effects of the compounds of the invention is here provided for compound 14. Compound 14 was here formulated as a 0.3% solution of pH=6.91 in Water/PEG 400 1:1.
# IOP of to normotensive New Zeland White rabbits (n=3) was measured using a Tonolab tonometer, at 9h00, prior to compound administration.
# At 9h30, one drop (50 μl) of the formulated solution was administered to rabbits, in the right eye (OD); while one drop (50 μl) of the vehicle solution was administered to the left eye (OS). IOP was then recorded in 1 h intervals until 17 h.
# [7] = Stability in plasma, species not stated; assay type: in vitro ADME; details: for half-life at 1 μM: comparison table, plasma species not given, read-out: t½ Plasma; for half life in plasma (in words): point C.2.1
# Procedure: as §1
# [8] = Stability assay in mice plasma; assay type: in vitro ADME; details: mouse, 1 μM compound, LC-MS/MS, read-out: t½ mice plasma
# Procedure: as §1
# [9] = ROCK 1 nM, 120 min at room temperature
# [10] = 1 μM, lung S9 from smokers, cofactors NADPH, UDPGA, PAPS, GSH
# [11] = lung S9 (from smokers), text summary of point C.2.2, read-out: half-life in lung tissue
# Sequence of ROCK2 (O75116 whole entry, species assumed): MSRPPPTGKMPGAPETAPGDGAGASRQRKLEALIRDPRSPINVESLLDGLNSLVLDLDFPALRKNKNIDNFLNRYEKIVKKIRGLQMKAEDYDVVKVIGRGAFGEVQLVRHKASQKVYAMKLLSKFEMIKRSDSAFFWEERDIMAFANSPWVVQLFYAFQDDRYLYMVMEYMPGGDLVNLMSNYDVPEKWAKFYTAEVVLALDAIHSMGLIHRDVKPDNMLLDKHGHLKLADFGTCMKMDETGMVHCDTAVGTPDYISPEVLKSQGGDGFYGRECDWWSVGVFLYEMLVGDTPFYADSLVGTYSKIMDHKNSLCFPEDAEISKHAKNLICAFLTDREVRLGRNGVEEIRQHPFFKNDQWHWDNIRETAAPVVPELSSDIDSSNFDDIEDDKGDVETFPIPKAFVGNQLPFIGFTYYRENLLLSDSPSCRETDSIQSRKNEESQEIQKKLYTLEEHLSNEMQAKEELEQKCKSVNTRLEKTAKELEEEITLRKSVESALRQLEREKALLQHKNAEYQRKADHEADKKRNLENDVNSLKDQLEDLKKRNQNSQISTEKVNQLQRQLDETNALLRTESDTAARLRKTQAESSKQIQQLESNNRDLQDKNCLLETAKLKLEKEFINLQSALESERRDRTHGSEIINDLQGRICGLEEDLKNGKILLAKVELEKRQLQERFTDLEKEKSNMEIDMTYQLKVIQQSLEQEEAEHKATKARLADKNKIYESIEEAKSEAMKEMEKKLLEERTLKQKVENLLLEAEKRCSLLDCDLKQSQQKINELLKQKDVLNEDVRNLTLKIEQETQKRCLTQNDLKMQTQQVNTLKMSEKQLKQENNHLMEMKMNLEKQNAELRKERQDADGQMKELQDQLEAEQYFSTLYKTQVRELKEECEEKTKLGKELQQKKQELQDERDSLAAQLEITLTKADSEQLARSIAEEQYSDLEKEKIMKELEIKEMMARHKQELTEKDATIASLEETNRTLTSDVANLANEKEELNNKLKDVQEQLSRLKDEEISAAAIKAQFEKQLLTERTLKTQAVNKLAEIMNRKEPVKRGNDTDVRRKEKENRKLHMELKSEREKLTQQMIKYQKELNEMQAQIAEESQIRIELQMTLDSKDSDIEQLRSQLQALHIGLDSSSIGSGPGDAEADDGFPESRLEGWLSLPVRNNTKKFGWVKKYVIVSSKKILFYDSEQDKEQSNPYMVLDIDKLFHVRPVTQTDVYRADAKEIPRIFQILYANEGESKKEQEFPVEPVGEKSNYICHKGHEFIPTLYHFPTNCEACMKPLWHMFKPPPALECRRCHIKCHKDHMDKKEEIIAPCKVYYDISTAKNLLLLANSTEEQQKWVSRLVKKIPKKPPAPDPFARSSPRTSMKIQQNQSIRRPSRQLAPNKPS
"IC50 [1, 9] [µM]",IC50 ([1]; comparison table) [µM],inhibitory activity against ROCK (in words) [1],IC50 [2] [µM],EC50 [2] [µM],half-life at 1 μM [3] [min],half-life at 1 μM ([5]; 1 μM in rabbit aqueous humor) [min],half-life at 1 μM ([5]; comparison table) [min],half-life at 1 μM [7] [min],half life in plasma (in words) [7],half-life at 1 μM [8] [min],"t½ human lung S9 [4, 10] [min]",t½ lung S9 ([4]; comparison table) [min],"half-life at 1 μM [4, 11] [min]",Structure (SMILES),functional activity in the MLC phosphorylation assay (in words) [2],other results
< 0.1,0.0034,strong inhibitory activity,0.24,< 0.3,< 5,> 120,> 120,< 5,short half life,,,,,O=C(OCC1CCCO1)c1cccc(CN2CCCC(Nc3ccc4[nH]ncc4c3)C2)c1 (centres unmarked) [Compound 14],functionally active compound; also recorded: display functional activity,"half-life at 1 μM ([4]; lung S9 (from smokers), comparison table, read-out: t½ lung S9): 9 min; half-life in aqueous humor compared with plasma (in words) ([5]; text summary of point C.2.3): significantly longer half-life in aqueous humor than in plasma; time after administration until which the IOP decrease is statistically significant (P≦0.05) ([6]; 0.3% solution, one drop at 9h30, until the 14 h time point): 4.30 h; IOP decrease following administration (in words) ([6]; 0.3% solution, one drop, visible until 17 h): pronounced IOP decrease; Average IOP OD (mmHg) ([6]; 9 h, right eye (OD), prior to compound administration (baseline), n=3): 9.89 mmHg; Average IOP OD (mmHg) ([6]; 10 h, one drop (50 μl) 0.3% solution in Water/PEG 400 1:1 at 9h30, right eye (OD)): 7.67 mmHg; Average IOP OD (mmHg) ([6]; 11 h, one drop (50 μl) 0.3% solution at 9h30, right eye (OD)): 6.44 mmHg; Average IOP OD (mmHg) ([6]; 12 h, one drop (50 μl) 0.3% solution at 9h30, right eye (OD)): 6.22 mmHg; Average IOP OD (mmHg) ([6]; 13 h, one drop (50 μl) 0.3% solution at 9h30, right eye (OD)): 7.00 mmHg; Average IOP OD (mmHg) ([6]; 14 h, one drop (50 μl) 0.3% solution at 9h30, right eye (OD)): 6.44 mmHg; Average IOP OD (mmHg) ([6]; 15 h, one drop (50 μl) 0.3% solution at 9h30, right eye (OD)): 7.67 mmHg; Average IOP OD (mmHg) ([6]; 16 h, one drop (50 μl) 0.3% solution at 9h30, right eye (OD)): 7.89 mmHg; Average IOP OD (mmHg) ([6]; 17 h, one drop (50 μl) 0.3% solution at 9h30, right eye (OD)): 8.11 mmHg"
< 0.1,0.0019,strong inhibitory activity,0.4,0.3 to 1,5,,,< 5,short half life,2.5,>240,>240,> 240,O=C(NCCSC1CCOC1=O)c1cccc(CN2CCCC(Nc3cccc4cnccc34)C2)c1 (centres unmarked) [Compound 26],display functional activity,
< 0.1,,strong inhibitory activity,,0.3 to 1,< 5,,,,short half life,2.2,>240,,> 240,O=C(NCCSC1CCOC1=O)c1cccc(CN2CCCC(Nc3ccc4[nH]ncc4c3)C2)c1 (centres unmarked) [Compound 28],display functional activity,
< 0.1,0.025,,0.16,< 0.3,25,> 120,98,22,,,,>240,,COC(=O)c1cccc(NC(=O)c2cccc(CN3CCC(Nc4cccc5cnccc45)C3)c2)c1 (centres unmarked) [Compound 32],,"half-life at 1 μM ([4]; 1 μM, lung S9 from smokers, cofactors NADPH, UDPGA, PAPS, GSH, read-out: t½ human lung S9): > 240 min"
